Measurements as given in publication PMC6442233, “SAR and molecular mechanism studies of monoamine oxidase inhibition by selected chalcone analogs” (Journal of Enzyme Inhibition and Medicinal Chemistry, 2019).

What was measured:
human MAO-A [1] = molecular target: T1, human MAO-A (Homo sapiens, UniProt P21397); assay: Reversibility of MAO-A inhibition by dialysis; type: biochemical; conditions: for Reversibility of MAO-A inhibition: dialysis 24 h, inhibitor at 4 × IC50
T1 construct: purchased Sigma-Aldrich
T1 sequence (P21397 1-527): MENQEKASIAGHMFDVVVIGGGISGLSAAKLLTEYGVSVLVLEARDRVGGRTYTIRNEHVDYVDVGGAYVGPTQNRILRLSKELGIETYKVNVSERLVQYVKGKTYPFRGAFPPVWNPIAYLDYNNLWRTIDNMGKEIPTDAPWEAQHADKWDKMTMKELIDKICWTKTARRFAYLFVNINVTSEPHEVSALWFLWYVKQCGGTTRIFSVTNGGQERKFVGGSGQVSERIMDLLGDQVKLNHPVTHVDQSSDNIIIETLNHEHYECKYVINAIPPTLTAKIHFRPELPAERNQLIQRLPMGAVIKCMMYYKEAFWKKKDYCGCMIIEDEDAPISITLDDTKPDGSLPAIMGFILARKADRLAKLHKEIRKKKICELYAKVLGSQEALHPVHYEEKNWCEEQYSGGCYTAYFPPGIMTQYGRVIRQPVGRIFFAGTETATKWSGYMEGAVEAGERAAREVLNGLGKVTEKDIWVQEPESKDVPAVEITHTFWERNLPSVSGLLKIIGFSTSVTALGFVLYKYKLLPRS
Experimental: (§1) The reversibility of inhibition of MAO by compound 16 was investigated by dialysis. Dialysis cassettes (Slide-A-Lyzer®; Thermo Scientific) with a volume of 0.5–3 mL and a molecular weight cutoff of 10,000 were used for the dialysis. […] The volume of these mixtures was 0.8 mL, and contained 4% DMSO. The mixtures were pre-incubated for 15 min at 37 °C and then dialyzed at 4 °C in buffer (80 mL), using the above buffer as dialysis buffer. After 3 and 7 h of dialysis, the dialysis buffer was changed with fresh buffer. […] For comparison, incubations of the MAOs and the test inhibitor were prepared as above but were not dialyzed and kept at 4 °C over the same time period. These experiments were carried out in triplicate, and the remaining enzyme catalytic rates are reported as the mean (± SD).

MAO-B mRNA expression = MAO-B mRNA expression in H4IIE cells (qRT-PCR); type: cell-based, rat; conditions: 70 µM
Experimental: (§2) Rat hepatoma (H4IIE) cells were purchased from American Type Culture Collection (ATCC). H4IIE cells are from rat liver, and contain both MAO-A and MAO-B in approximately equal levels. Cells were cultured in Eagle’s minimum essential medium (EMEM) supplemented with 10% fetal bovine serum (FBS) and 1% streptomycin/penicillin at 37 °C in a 5% CO2 humidified incubator. Cells were plated at a cell density of 3.0 × 10^5 cells in each well of six well plates. Upon 80% confluence, the cells were washed with phosphate buffered saline (PBS) and the media were changed to HBSS supplemented with 10 mM HEPES and 5 mM D-glucose, pH 7.4. These media also contained calcium chloride (1.26 mM) and magnesium chloride (0.5 mM). Cells were then treated with tolcapone (1 0^−6 M), a catechol-O-methyltransferase (COMT) inhibitor to protect dopamine from enzymatic degradation, 20 min prior to starting the experiment. The cells were treated with the negative vehicle control (1% DMSO) or 70 µM of the MAO-B inhibitors (compounds 12, 14, 16, and 17) with the DMSO concentration also being 1%. The cells were subsequently treated with L-DOPA (50 µM). To measure dopamine release and MAO-B gene expression, both the cells and media were collected at 0, 30, 60, and 120 min after treatment. Dopamine level was measured in the supernatant aspirated from the cells by using high performance liquid chromatography (HPLC), while the cells were lysed with trizol for RNA extraction and subsequent gene expression studies.
Total RNA was isolated using the Trizol agent (Invitrogen). One μg of RNA from each sample was reverse transcribed to cDNA using the M-MLV reverse transcriptase kit, according to the manufacturer’s instruction (Promega). PowerUp SYBR green master mix (Life technologies) was used for quantitative real-time polymerase chain reaction (qRT-PCR) for analysis of gene expression. The following primers were used (IDTs) MAO-B forward, […]; MAO-B reverse, […]; β-actin forward, […] and β-actin reverse, […]. qRT-PCR was performed in a 384 well plates with the Quant Studio-5 instrument (Applied Biosystems). Samples were carried out in triplicate in a 10 µL reaction volume using the following cycling conditions: UDG activation for one cycle at 50 °C for 2 min, followed by a single cycle at 95 °C for 2 min, then 40 cycles of denaturation at 95 °C for 15 s, and annealing at 60 °C for 1 min. β-actin was used as a loading control and gene expression was calculated using the 2^-ΔΔCT method as described previously.
(§3) One-way ANOVA followed by Dunnett’s test (compared to the vehicle-control) was used to analyze the data obtained for the dopamine concentrations for compounds 12, 14, 16, and 17targeting MAO-B at 0, 30, 60, and 120 min. One-way ANOVA followed by Newman–Keuls multiple comparison tests was used to analyze time-dependent effects of compounds 14 and 17 on the relative mRNA expression (triplicate) of MAO-B enzyme.

human MAO-A [2] = molecular target: T1, human MAO-A; assay: IC50 determination for MAO-A inhibition (kynuramine, fluorescence); type: biochemical; conditions: recombinant hMAO-A, kynuramine 50 μM, mean ± SD (triplicate)
Experimental: (§4) IC50 values for the inhibition of MAO were determined by using the recombinant human MAO-A and MAO-B enzymes (Sigma-Aldrich). Enzyme reactions were performed at a final volume of 200 µL in white 96-well microplates (Eppendorf), with the reaction solvent consisting of potassium phosphate buffer (100 mM, pH 7.4, adjusted to isotonicity with KCl). The reactions contained the nonselective MAO substrate, kynuramine (50 μM), and the test inhibitors at 0.003–100 µM. The test compounds were initially dissolved in DMSO (100%), and after addition to the reactions yielded a concentration of 4% DMSO. Control reactions were included, which contained substrate and 4% DMSO but no test inhibitor. The MAO reactions were started by adding MAO-A (0.0075 mg protein/mL) or MAO-B (0.015 mg protein/mL), and were subsequently incubated for a period of 20 min (37 °C) in a convection oven. A volume of 80 µL 2 N sodium hydroxide was added to the reactions, and the fluorescence intensity of 4-hydroxyquinoline (the end-product of the MAO-catalyzed metabolism of kynuramine) in the reactions was measured at λex 310 and λem 400 nm. To quantify 4-hydroxyquinoline, a calibration curve (linear) ranging from 0.047 to 1.56 μM, was employed. […] These measurements were carried out in triplicate and the IC50 values are presented as the mean ± standard deviation (SD)[18].
(§5) The formation of the dihydropyridinium species (MMDP^+) as a MAO-catalyzed oxidation product of MMTP was monitored at 420 nm. […] Based on this, the IC50 values were determined using kynuramine as a nonselective substrate. The rate of oxidation of kynuramine by MAO was monitored by measuring the fluorescence of the oxidation product, 4-hydroxyquinoline (λex= 310 nm; λem= 400 nm).

human MAO-B [3] = molecular target: T2, human MAO-B (Homo sapiens, UniProt P27338); assay: IC50 determination for MAO-B inhibition (kynuramine, fluorescence); type: biochemical; conditions: for Selectivity index: SI = IC50(MAO-A)/IC50(MAO-B); for IC50: recombinant hMAO-B, kynuramine 50 μM, mean ± SD (triplicate)
T2 construct: purchased Sigma-Aldrich
T2 sequence (P27338 1-520): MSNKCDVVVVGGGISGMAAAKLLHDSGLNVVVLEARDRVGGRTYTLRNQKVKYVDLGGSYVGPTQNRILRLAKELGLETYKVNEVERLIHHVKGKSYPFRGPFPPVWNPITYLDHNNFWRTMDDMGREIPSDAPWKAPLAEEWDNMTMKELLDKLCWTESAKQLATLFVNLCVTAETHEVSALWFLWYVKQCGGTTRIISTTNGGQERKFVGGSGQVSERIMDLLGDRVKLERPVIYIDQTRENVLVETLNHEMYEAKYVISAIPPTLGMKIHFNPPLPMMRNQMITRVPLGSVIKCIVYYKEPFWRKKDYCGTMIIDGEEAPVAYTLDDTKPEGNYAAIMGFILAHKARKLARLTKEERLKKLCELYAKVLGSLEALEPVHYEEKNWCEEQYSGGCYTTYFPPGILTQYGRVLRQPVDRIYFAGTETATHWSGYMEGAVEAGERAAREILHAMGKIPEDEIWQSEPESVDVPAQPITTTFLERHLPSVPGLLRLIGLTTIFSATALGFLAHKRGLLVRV
Experimental: as §4, §5

[4] = test system: Rat hepatoma (H4IIE) cells; assay: Dopamine assay in H4IIE cells (HPLC with electrochemical detection); type: cell-based; conditions: 70 µM compound, 50 µM L-DOPA
Experimental: as §2
Rat hepatoma cells (H4IIE) were treated with 1% DMSO (vehicle-control), compounds 12, 14, 16, or 17 for different time points at a concentration of 70 µM of each compound along with 50uM L-DOPA.
The concentrations of dopamine were detected using a CoulArray electrochemical array detector system as described previously. Briefly, supernatants obtained from cell culture were filtered using 0.22 μm filter. The filtrates were subsequently injected onto a C18 column (3.2 × 150 mm, 3 μm particle size, Thermo Scientific). The mobile phase consisted of a mixture of 54.3 mM sodium phosphate, 0.215 mM octyl sodium sulfate, 0.32 mM citric acid and 11% methanol. Dopamine concentrations were measured with the CoulArray Electrochemical Array Detector. The chromatograms were analyzed using the CoulArray software. A standard calibration curve was determined using different concentrations of an external standard dopamine (SigmaAldrich).
as §3

human MAO-B [5] = molecular target: T2, human MAO-B; assay: Lineweaver-Burk plots and Ki calculation, MAO-B; type: biochemical
Experimental: (§6) Sets of six Lineweaver–Burk plots each were prepared to determine if the inhibition of MAO-A and MAO-B by compound 16 is competitive. […] The substrate, kynuramine, was used at concentrations ranging from 15 to 250 μM, whereas the final enzyme concentration was 0.015 mg protein/mL. […] Ki values were estimated by graphing the slopes of the Lineweaver–Burk plots against inhibitor concentration. The intercept of the x-axis is equal to –Ki.

human MAO-B [6] = molecular target: T2, human MAO-B; assay: Reversibility of MAO-B inhibition by dialysis; type: biochemical
Experimental: as §1

human MAO-A [7] = molecular target: T1, human MAO-A; assay: Lineweaver-Burk plots and Ki calculation, MAO-A; type: biochemical
Experimental: as §6

[8] = Lineweaver-Burk plots cross on the y-axis
[9] = slopes of Lineweaver-Burk plots vs inhibitor concentration, kynuramine 15-250 μM
[10] = 4 × IC50, incubated 15 min, dialyzed 24 h, compared to negative control (100%)
[11] = 4 × IC50, not dialyzed, compared to negative control (100%)

melting point	IC50 (human MAO-A [2])	Selectivity index (human MAO-B [3])	IC50 (human MAO-B [3])	Structure (SMILES)	Reversibility of MAO-A inhibition (human MAO-A [1])	Relative MAO-B mRNA expression vs negative control (MAO-B mRNA expression; 0 min)	Relative MAO-B mRNA expression vs negative control (MAO-B mRNA expression; 30 min)	Relative MAO-B mRNA expression vs negative control (MAO-B mRNA expression; 60 min)	Dopamine concentration vs vehicle-control ([4]; 30 min)	Dopamine concentration vs vehicle-control ([4]; 60 min)	Dopamine concentration vs vehicle-control ([4]; 120 min)	also measured
				C#CCN(C)Cc1ccccc1 [Pargyline, reference compound]	dialysis failed to restore catalytic activity							
126 to 130 °C	0.506 ± 0.052 µM	11	0.043 ± 0.004 µM	O=C(/C=C/c1ccc(F)cc1)c1ccc2c(c1)OCO2 [Compound 14, (E)-1-(benzo[d][1,3]dioxol-5-yl)-3–(4-fluorophenyl)prop-2-en-1-one]		no significant changes	reduced	no significant changes	increased	elevation	increase	Relative MAO-B mRNA expression vs negative control (MAO-B mRNA expression; 120 min): decreased; Relative MAO-B mRNA expression vs 0 min time point (MAO-B mRNA expression; 120 min exposure): decreased
	0.149 ± 0.011 µM	3.0	0.05 ± 0.002 µM	O=C(/C=C/c1ccc(Cl)cc1)c1ccc2c(c1)OCO2 [Compound 16, (E)-1-(benzo[d][1,3]dioxol-5-yl)-3–(4-chlorophenyl)prop-2-en-1-one]	reversibly inhibits							Mode of MAO-B inhibition (human MAO-B [5]; [8]): competitive; Ki (human MAO-B [5]; [9]): 20 nM; MAO-B activity after dialysis (human MAO-B [6]; [10]): 105%; MAO-B activity, undialyzed samples (human MAO-B [6]; [11]): 34%; Reversibility of MAO-B inhibition (human MAO-B [6]; dialysis 24 h, inhibitor at 4 × IC50): reversibly inhibits; Mode of MAO-A inhibition (human MAO-A [7]; [8]): competitive; Ki (human MAO-A [7]; [9]): 47 nM; MAO-A activity after dialysis (human MAO-A [1]; [10]): 103%; MAO-A activity, undialyzed samples (human MAO-A [1]; [11]): 31%
172 to 175 °C	0.927 ± 0.121 µM	13	0.069 ± 0.004 µM	O=C(/C=C/c1ccc([N+](=O)[O-])cc1)c1ccc2c(c1)OCO2 [Compound 17, (E)-1-(benzo[d][1,3]dioxol-5-yl)-3–(4-nitrophenyl)prop-2-en-1-one]		no significant changes	reduced	no significant changes	increased	elevation	increase	Relative MAO-B mRNA expression vs 0 min time point (MAO-B mRNA expression; 30 min exposure): reduced; Relative MAO-B mRNA expression vs 0 min time point (MAO-B mRNA expression; 60 min exposure): reduced
